Six molecules from ChEMBL document CHEMBL1141542, “Synthesis and evaluation of 3- and 7-substituted geranylgeranyl pyrophosphate analogs” (Bioorg Med Chem Lett, 2008) can be followed below.

Test [1] can be described thus: Activity of GGTase 1.
The nature of test [2]: Inhibition of FTase.
The nature of test [3]: Inhibition of GGTase 1.
Test [4] is described as follows: Activity of FTase.

pIC50: −log10 of the molar value.

For the molecule `C=C/C(=C\COP(=O)(O)OP(=O)(O)O)CC/C=C(\C)CC/C=C(\C)CCC=C(C)C`, in test [1], the Km was determined as 1.75 µM. Moreover, the pIC50 in test [2] was 6.15.
For `C=CC/C(=C\CC/C(C)=C/COP(=O)(O)OP(=O)(O)O)CC/C=C(\C)CCC=C(C)C` the same measures were 0.027 µM and less than 5.30.
As to `C=CC/C(=C\COP(=O)(O)OP(=O)(O)O)CC/C=C(\C)CCC=C(C)C`, in test [2], the pIC50 is 6.72.
For the molecule `C=C/C(=C\CC/C(C)=C/COP(=O)(O)OP(=O)(O)O)CC/C=C(\C)CCC=C(C)C`, the pIC50 in test [2] is less than 5.30; in test [3], 6.00.
The matching figures for `C=CC/C(=C\COP(=O)(O)OP(=O)(O)O)CC/C=C(\C)CC/C=C(\C)CCC=C(C)C`: 6.34 and 6.07.
For `C=C/C(=C\COP(=O)(O)OP(=O)(O)O)CC/C=C(\C)CCC=C(C)C`, the Km in test [4] worked out at 0.156 µM.
